Data as given in US10874745B2, “Antimicrobial peptides and methods of treating gram-negative pathogens: polar and non-polar face analogs” (priority 2017, dated 2020).
Values after ≈ are worked out from the molar mass of the structure shown. Values joined by “and” are separate entries in the source; they are usually repeats but may differ in a detail not shown here. Equal values may be shown once. Read-outs that look alike come from different tables or passages of the source. Non-standard residues stand in square brackets, D forms with d. Residues, ends and D or L forms follow the SMILES beside them.

Columns and labels:
MSSA = experiment: Resistance profile of MSSA strains; format: cell-based, Staphylococcus aureus; design: key: R denotes resistant; S denotes sensitive
MRSA = experiment: Resistance profile of MRSA strains; format: cell-based, Staphylococcus aureus; design: key: R denotes resistant; S denotes sensitive
[1] = tested on: A. baumannii strains resistant to Polymyxin B and Colistin; format: cell-based; details: for MICGM: geometric mean, 7 A. baumannii strains resistant to polymyxin B and colistin
From the text: Gram-Negative Bacterial Strains used in this Study: All the A. baumannii strains used in this study were 1) obtained from the collection of Dr. Anthony A. Campagnari at the University of Buffalo and originally isolated from different patients and organs/tissues (strain 649, blood; strain 689, groin; strain 759, gluteus; strain 884, axilla; strain 985, pleural fluid); 2) were purchased from the American Type Culture Collection (ATCC, Manassas, Va., USA) (strain ATCC 17978, fatal meningitis; and strain ATCC 19606, urine); 3) obtained from MERCK (M89941, M89949, M89951, M89952, M89953, M89955 and M89963). These seven A. baumannii strains were resistant to polymyxin B and polymyxin E (Colistin).
Measurement of Antimicrobial Activity (MIC): The minimal inhibitory concentration (MIC) is defined as the lowest peptide concentration that inhibited bacterial growth. MICs were measured by a standard microtiter dilution method in Mueller Hinton (MH) medium. Briefly, cells were grown overnight at 37° C. in MH broth and were diluted in the same medium. […] The plates were incubated at 37° C. for 24 h, and the MICs were determined.

Hemolytic activity = format: cell-based, human; details: 1% human erythrocytes (red blood cells), pH 7.4
Procedure: Hemoglobin release was determined spectrophotometrically at 570 nm. […] […] […] With the peptides used in this study the inventors used the HC30/MIC ratio value to calculate the therapeutic index.

[2] = 50% hemolysis of human red blood cells after 18 hours at 37° C., read-out: HC50

Molecule | Antibiotic Susceptibility (MSSA; MSSA strain BL7429 (Blood)) | Antibiotic Susceptibility (MSSA; MSSA strain M21913 (Finger)) | Antibiotic Susceptibility (MSSA; MSSA strain M22075 (Axilla)) | Antibiotic Susceptibility (MSSA; MSSA strain M22097 (Neck)) | Antibiotic Susceptibility (MSSA; MSSA strain M22274 (Spine)) | Antibiotic Susceptibility (MSSA; MSSA strain M22300 (Finger)) | Antibiotic Susceptibility (MSSA; MSSA strain M22312 (Finger)) | Antibiotic Susceptibility (MSSA; MSSA strain M22315) | Antibiotic Susceptibility (MRSA; MRSA strain M21742 (Nose)) | Antibiotic Susceptibility (MRSA; MRSA strain M21756 (Nose)) | Antibiotic Susceptibility (MRSA; MRSA strain M22111 (Ear)) | Antibiotic Susceptibility (MRSA; MRSA strain M22130) | Antibiotic Susceptibility (MRSA; MRSA strain M22224 (Leg)) | Antibiotic Susceptibility (MRSA; MRSA strain M22354) | Antibiotic Susceptibility (MRSA; MRSA strain M22360 (Labia)) | Antibiotic Susceptibility (MRSA; MRSA strain M22424 (Arm)) | HC50 at 18 h (Hemolytic activity; [2]) | other results
CCC[C@@H]1C[C@@H](C(=O)N[C@@H]([C@H]2O[C@H](SC)[C@H](O)[C@@H](O)[C@H]2O)[C@H](C)Cl)N(C)C1 [Clindamycin] | S | S | S | S | S | S | S | S | S | S | R | S | S | S | S | S^c |  | Antibiotic Susceptibility (MSSA; MSSA strain M22287 (Hip)): S
CC[C@H]1OC(=O)[C@H](C)[C@@H](O[C@H]2C[C@@](C)(OC)[C@@H](O)[C@H](C)O2)[C@H](C)[C@@H](O[C@@H]2O[C@H](C)C[C@H](N(C)C)[C@H]2O)[C@](C)(O)C[C@@H](C)C(=O)[C@H](C)[C@@H](O)[C@]1(C)O [Erythromycin] | S | S | S | S | S | S | S | S | R | S | R | R | R | R | R | R |  | 
Cc1onc(-c2ccccc2)c1C(=O)N[C@@H]1C(=O)N2[C@@H]1SC(C)(C)[C@@H]2C(=O)O [Oxacillin] | S | S | S | S | S | S | S | S | R | R | R | R | R | R | R | R^c |  | Antibiotic Susceptibility (MSSA; MSSA strain M22287 (Hip)): S
CC(=O)N[C@H](CCCCN)C(=O)N[C@H](CC(C)C)C(=O)N[C@H](CCCCN)C(=O)N[C@H](CO)C(=O)N[C@H](CC(C)C)C(=O)N[C@H](CC(C)C)C(=O)N[C@H](CCCCN)C(=O)N[C@@H](C(=O)N[C@H](CC(C)C)C(=O)N[C@H](CO)C(=O)N[C@H](CCCCN)C(=O)N[C@H](C)C(=O)N[C@H](CCCCN)C(=O)N[C@H](C)C(=O)N[C@H](C)C(=O)N[C@H](CCCCN)C(=O)N[C@H](CC(C)C)C(=O)N[C@H](CCCCN)C(=O)N[C@@H](C(=O)N[C@H](CC(C)C)C(=O)N[C@H](CC(C)C)C(=O)N[C@H](CCCCN)C(=O)N[C@H](C)C(=O)N[C@H](CC(C)C)C(=O)N[C@H](CO)C(=O)N[C@H](CCCCN)C(N)=O)[C@H](C)O)[C@H](C)O [Peptide D84, Ac-KL(Lys)SLL(Lys)TLS(Lys)AKAAKL(Lys)TLL(Lys)ALS(Lys)-amide] |  |  |  |  |  |  |  |  |  |  |  |  |  |  |  |  |  | MIC ([1]; strain MB9941 (Table 9C)): 0.3 µM (≈ 0.86 µg/mL); MIC ([1]; strain MB9949 (Table 9C)): 0.7 µM (≈ 2.01 µg/mL); MIC ([1]; strain MB9951 (Table 9C)): 0.3 µM (≈ 0.86 µg/mL); MIC ([1]; strain MB9952 (Table 9C)): 0.7 µM (≈ 2.01 µg/mL); MIC ([1]; strain MB9953 (Table 9C)): 0.7 µM (≈ 2.01 µg/mL); MIC ([1]; strain MB9955 (Table 9C)): 0.3 µM (≈ 0.86 µg/mL); MIC ([1]; strain MB9963 (Table 9C)): 0.7 µM (≈ 2.01 µg/mL); HC50 at 18 h (Hemolytic activity; human): 156 µg/mL
CC(=O)N[C@H](CCCCN)C(=O)N[C@H](CC(C)C)C(=O)N[C@H](CCCN)C(=O)N[C@H](CO)C(=O)N[C@H](CC(C)C)C(=O)N[C@H](CC(C)C)C(=O)N[C@H](CCCN)C(=O)N[C@@H](C(=O)N[C@H](CC(C)C)C(=O)N[C@H](CO)C(=O)N[C@H](CCCN)C(=O)N[C@H](C)C(=O)N[C@H](CCCCN)C(=O)N[C@H](C)C(=O)N[C@H](C)C(=O)N[C@H](CCCCN)C(=O)N[C@H](CC(C)C)C(=O)N[C@H](CCCN)C(=O)N[C@@H](C(=O)N[C@H](CC(C)C)C(=O)N[C@H](CC(C)C)C(=O)N[C@H](CCCN)C(=O)N[C@H](C)C(=O)N[C@H](CC(C)C)C(=O)N[C@H](CO)C(=O)N[C@H](CCCN)C(N)=O)[C@H](C)O)[C@H](C)O [Peptide D85, Ac-KL(Orn)SLL(Orn)TLS(Orn)AKAAKL(Orn)TLL(Orn)ALS(Orn)-amide] |  |  |  |  |  |  |  |  |  |  |  |  |  |  |  |  |  | MIC ([1]; strain MB9941 (Table 9C)): 0.7 µM (≈ 1.95 µg/mL); MIC ([1]; strain MB9949 (Table 9C)): 0.7 µM (≈ 1.95 µg/mL); MIC ([1]; strain MB9951 (Table 9C)): 0.7 µM (≈ 1.95 µg/mL); MIC ([1]; strain MB9952 (Table 9C)): 0.4 µM (≈ 1.11 µg/mL); MIC ([1]; strain MB9953 (Table 9C)): 0.4 µM (≈ 1.11 µg/mL); MIC ([1]; strain MB9955 (Table 9C)): 0.4 µM (≈ 1.11 µg/mL); MIC ([1]; strain MB9963 (Table 9C)): 0.4 µM (≈ 1.11 µg/mL); HC50 at 18 h (Hemolytic activity; human): 406 µg/mL
CC(=O)N[C@H](CCCCN)C(=O)N[C@H](CC(C)C)C(=O)N[C@H](CCCNC(=N)N)C(=O)N[C@H](CO)C(=O)N[C@H](CC(C)C)C(=O)N[C@H](CC(C)C)C(=O)N[C@H](CCCNC(=N)N)C(=O)N[C@@H](C(=O)N[C@H](CC(C)C)C(=O)N[C@H](CO)C(=O)N[C@H](CCCNC(=N)N)C(=O)N[C@H](C)C(=O)N[C@H](CCCCN)C(=O)N[C@H](C)C(=O)N[C@H](C)C(=O)N[C@H](CCCCN)C(=O)N[C@H](CC(C)C)C(=O)N[C@H](CCCNC(=N)N)C(=O)N[C@@H](C(=O)N[C@H](CC(C)C)C(=O)N[C@H](CC(C)C)C(=O)N[C@H](CCCNC(=N)N)C(=O)N[C@H](C)C(=O)N[C@H](CC(C)C)C(=O)N[C@H](CO)C(=O)N[C@H](CCCNC(=N)N)C(N)=O)[C@H](C)O)[C@H](C)O [Peptide D87, Ac-KL(Arg)SLL(Arg)TLS(Arg)AKAAKL(Arg)TLL(Arg)ALs(Arg)-amide] (Ac-[dK][dL][dR][dS][dL][dL][dR][dT][dL][dS][dR][dA][dK][dA][dA][dK][dL][dR][dT][dL][dL][dR][dA][dL][dS][dR]-NH2) |  |  |  |  |  |  |  |  |  |  |  |  |  |  |  |  | 12 µg/mL | 
CC(=O)N[C@H](CCCCN)C(=O)N[C@H](CC(C)C)C(=O)N[C@H](CCCCN)C(=O)N[C@H](CO)C(=O)N[C@H](CC(C)C)C(=O)N[C@H](CC(C)C)C(=O)N[C@H](CCCCN)C(=O)N[C@@H](C(=O)N[C@H](CC(C)C)C(=O)N[C@H](CO)C(=O)N[C@H](CCCCN)C(=O)N[C@H](C)C(=O)N[C@H](CCCCN)C(=O)N[C@H](C)C(=O)N[C@H](C)C(=O)N[C@H](CCCCN)C(=O)N[C@H](CC(C)C)C(=O)N[C@H](CCCCN)C(=O)N[C@@H](C(=O)N[C@H](CC(C)C)C(=O)N[C@H](CC(C)C)C(=O)N[C@H](CCCCN)C(=O)N[C@H](C)C(=O)N[C@H](CC(C)C)C(=O)N[C@H](CO)C(=O)N[C@H](CO)C(N)=O)[C@H](C)O)[C@H](C)O [Peptide D101, Ac-KL(Lys)SLL(Lys)TLS(Lys)AKAAKL(Lys)TLL(Lys)ALSS-amide] |  |  |  |  |  |  |  |  |  |  |  |  |  |  |  |  | 279 µg/mL and > 104 µM | 
CC(=O)N[C@H](CCCCN)C(=O)N[C@H](CC(C)C)C(=O)N[C@H](CCCCN)C(=O)N[C@H](CO)C(=O)N[C@H](CC(C)C)C(=O)N[C@H](CC(C)C)C(=O)N[C@H](CCCCN)C(=O)N[C@@H](C(=O)N[C@H](CC(C)C)C(=O)N[C@H](CO)C(=O)N[C@H](C)C(=O)N[C@H](C)C(=O)N[C@H](CCCCN)C(=O)N[C@H](CCCCN)C(=O)N[C@H](CCCCN)C(=O)N[C@H](CCCCN)C(=O)N[C@H](CC(C)C)C(=O)N[C@H](C)C(=O)N[C@@H](C(=O)N[C@H](CC(C)C)C(=O)N[C@H](CC(C)C)C(=O)N[C@H](CCCCN)C(=O)N[C@H](C)C(=O)N[C@H](CC(C)C)C(=O)N[C@H](CO)C(=O)N[C@H](CO)C(N)=O)[C@H](C)O)[C@H](C)O [Peptide D103, Ac-KL(Lys)SLL(Lys)TLSAAK(Lys)(Lys)KLATLL(Lys)ALSS-amide] (Ac-[dK][dL][dK][dS][dL][dL][dK][dT][dL][dS][dA][dA][dK][dK][dK][dK][dL][dA][dT][dL][dL][dK][dA][dL][dS][dS]-NH2) |  |  |  |  |  |  |  |  |  |  |  |  |  |  |  |  | 381 µg/mL and 135 µM | 
Colistin [reference compound] |  |  |  |  |  |  |  |  |  |  |  |  |  |  |  |  |  | MICGM [1]: >28 µM; MIC ([1]; strain M89941): >28 µM; MIC ([1]; strain M89949): >28 µM; MIC ([1]; strain M89951): >28 µM; MIC ([1]; strain M89952): >28 µM; MIC ([1]; strain M89953): >28 µM; MIC ([1]; strain M89955): >28 µM; MIC ([1]; strain M89963): >28 µM
Polymyxin B [reference compound] |  |  |  |  |  |  |  |  |  |  |  |  |  |  |  |  |  | MICGM [1]: >25 µM; MIC ([1]; strain M89941): >25 µM; MIC ([1]; strain M89949): >25 µM; MIC ([1]; strain M89951): >25 µM; MIC ([1]; strain M89952): >25 µM; MIC ([1]; strain M89953): >25 µM; MIC ([1]; strain M89955): >25 µM; MIC ([1]; strain M89963): >25 µM
